System: thermal hyperalgesia of the hind paws induced by injection of carrageenan
Assay: Anti-hyperalgesic effect in the carrageenan model of inflammatory triggered thermal hyperalgesia in mice after oral administration
Format: in vivo, male C57B6 mice
Design: key to Statistical evaluation vs. control (AUC1 h-6 h of PWL): ns: not significant; ***: significant, p < 0.0001 (ANOVA & Dunnett)
Settings: for Mean PWL (paw withdrawal latency) ± SEM: N=6 paws; for Statistical evaluation vs. control (AUC1 h-6 h of PWL): 1-way ANOVA & Dunnett; for AUC1 h-6 h of PWL (mean ± SEM): 1 h to 6 h after carrageenan, N=6
Protocol: In this in vivo model the anti-hyperalgesic effect was determined in mice in which a thermal hyperalgesia of the hind paws had been induced by injection of carrageenan, by measuring the paw withdrawal latency (PWL), i.e. the time until the mouse withdrew its hind paw from a heated spot of the ground. These experiments and all other animal experiments were performed in accordance with animal protection law and guidelines for the use of experimental animals.
Three test groups and one control group of animals were used each consisting of three male C57B6 mice. 1 h before injection of carrageenan, either the test compound or vehicle was administered to the animals orally by gavage. In the test groups, mice received 100 μl/10 g body weight of a suspension of the test compound in vehicle MC/T80 comprising 0.1 mg/ml, 0.3 mg/ml or 1 mg/ml (prepared as described in pharmaceutical example A) for attaining a dosage of 1 mg/kg body weight, 3 mg/kg body weight and 10 mg/kg body weight, respectively. In the control group, mice analogously received 100 μl/10 g body weight of vehicle MC/T80. For induction of hind paw inflammatory pain, then in all groups carrageenan (Sigma, Deisenhofen, Germany) at a concentration of 2% in 10 μl of saline was injected into the plantar aspect of both hind paws of the mice under slight general isofluran anesthesia. 1 h before injection of carrageenan, i.e. immediately before administration of the test compound or vehicle, and 1 h, 2 h, 4 h and 6 h after injection of carrageenan, thermal hyperalgesia was determined.
Thermal hyperalgesia was determined by measuring the paw withdrawal latency (PWL) by means of the automatic plantar test, first described for rats in K. Hargreaves et al., Pain 32 (1988), 77-88, and used in an adapted version fitted to mice described in H. Gühring et al., J. Neurosci. 20 (2000), 6714-6720. To restrict animal movement, 10.5×13.0×4.5 cm test cages were used. Instead of a glass floor, a metal grid bottom was used. PWL (in seconds) was determined on exposure of the paw to a defined thermal stimulus using a commercially available apparatus (Plantar Test, Ugo Basile Biological Research Apparatus, Comerio, Italy) fitted with a mini camera to ensure proper placement of the infrared heat below the hind paw of interest. The timer which measured the duration of reflected infrared light by the hind paw was started by the investigator and stopped once the animal shook the affected paw. A cut-off was set at 16 seconds to prevent tissue damage. For each hind paw and each time point, the mean of three to four PWL measurements was determined.
The given PWL values (in seconds) are the mean±SEM (standard error of the mean) of the PWL values obtained for each hind paw of each animal (N (number of paws)=6) of the indicated dosage group at the time points 1 h, 2 h, 4 h and 6 h after injection of carrageenan, as well as the baseline PWL values (BL) determined 1 h before administration of the test compound or vehicle and injection of carrageenan.
For the statistical analysis, PWL values were used in two ways, first with a 2-way ANOVA test based on the PWL values and second with a 1-way ANOVA test based on the area under the curve (AUC) values for the time period of 6 h after injection of carrageenan. A repeated measures 2-way ANOVA test (factor treatment and repeated measures factor time) was performed on PWL measurements. In case the interaction (treatment×time) was statistically significant, a Winer complementary analysis was done to investigate the effect of treatment for each time point. A Dunnett's test was used to study the potential differences between the control group and the test groups. […]

Structure (SMILES): O=C(Nc1ccc(S(=O)(=O)N2CCOCC2)cc1)c1cc(Cl)ccc1NS(=O)(=O)c1ccc(Cl)s1.[Na] [Example 94, 5-Chloro-2-(5-chloro-thiophene-2-sulfonylamino)-N-(4-(morpholine-4-sulfonyl)-phenyl)-benzamide sodium salt]
- Mean PWL (paw withdrawal latency) ± SEM (1 mg/kg body weight group, BL baseline before administration and carrageenan): 11.08 ± 0.40 s
- Statistical evaluation vs. control (AUC1 h-6 h of PWL) (1 mg/kg body weight oral): ns
- Mean PWL (paw withdrawal latency) ± SEM (1 mg/kg body weight oral, 1 h after carrageenan): 4.08 ± 0.62 s
- AUC1 h-6 h of PWL (mean ± SEM) (1 mg/kg body weight oral): 19.57 ± 2.19
- Mean PWL (paw withdrawal latency) ± SEM (1 mg/kg body weight oral, 2 h after carrageenan): 3.80 ± 0.28 s
- Mean PWL (paw withdrawal latency) ± SEM (1 mg/kg body weight oral, 4 h after carrageenan): 3.98 ± 0.79 s
- Mean PWL (paw withdrawal latency) ± SEM (1 mg/kg body weight oral, 6 h after carrageenan): 3.86 ± 0.48 s
- Anti-hyperalgesic effect on PWL vs. control (2-way ANOVA, Dunnett) (3 mg/kg and 10 mg/kg body weight oral, from 1 h to 4 h after carrageenan injection): Statistically significant anti-hyperalgesic effects
- Mean PWL (paw withdrawal latency) ± SEM (3 mg/kg body weight group, BL baseline before administration and carrageenan): 10.69 ± 0.27 s
- Statistical evaluation vs. control (AUC1 h-6 h of PWL) (3 mg/kg body weight oral): *** (significant, p < 0.0001 (ANOVA & Dunnett))
- Mean PWL (paw withdrawal latency) ± SEM (3 mg/kg body weight oral, 1 h after carrageenan): 8.42 ± 0.53 s
- AUC1 h-6 h of PWL (mean ± SEM) (3 mg/kg body weight oral): 44.87 ± 1.21
- Mean PWL (paw withdrawal latency) ± SEM (3 mg/kg body weight oral, 2 h after carrageenan): 10.16 ± 0.33 s
- Mean PWL (paw withdrawal latency) ± SEM (3 mg/kg body weight oral, 4 h after carrageenan): 10.84 ± 0.63 s
- Mean PWL (paw withdrawal latency) ± SEM (3 mg/kg body weight oral, 6 h after carrageenan): 3.74 ± 0.47 s
- Mean PWL (paw withdrawal latency) ± SEM (10 mg/kg body weight group, BL baseline before administration and carrageenan): 10.97 ± 0.40 s
- Statistical evaluation vs. control (AUC1 h-6 h of PWL) (10 mg/kg body weight oral): *** (significant, p < 0.0001 (ANOVA & Dunnett))
- Mean PWL (paw withdrawal latency) ± SEM (10 mg/kg body weight oral, 1 h after carrageenan): 12.46 ± 0.91 s
- AUC1 h-6 h of PWL (mean ± SEM) (10 mg/kg body weight oral): 48.70 ± 2.06
- Mean PWL (paw withdrawal latency) ± SEM (10 mg/kg body weight oral, 2 h after carrageenan): 11.24 ± 0.77 s
- Mean PWL (paw withdrawal latency) ± SEM (10 mg/kg body weight oral, 4 h after carrageenan): 11.11 ± 0.54 s
- Mean PWL (paw withdrawal latency) ± SEM (10 mg/kg body weight oral, 6 h after carrageenan): 3.40 ± 0.46 s
